Test results published in patent US11331290B2, “Niclosamide for the treatment of cancer metastasis” (Max-Delbrück-Centrum für Molekulare Medizin in der …, priority 2011, dated 2022).

Legend:
HCT116 cells = experiment: Boyden chamber transwell migration assay; format: cell-based, human; conditions: for cell migration rate, mean %: 1 μM daily for 3 days
Description: HCT116, SW620, LS174T, SW480 and DLD-1 cells were used in cell migration and invasion analysis performed with Boyden chamber assay. 400 μL containing 2.5×10^5 cells were seeded into each transwell chamber with filter membranes of 12.0 μm pore size (Millipore, Schwalbach, Germany). For invasion filter membranes were coated with 50 μL Matrigel (diluted 1:3 in RPMI-1640; BD Biosciences) 10 minutes before cells were seeded. Fresh medium (600 μL) were added to the bottom chamber and cells were allowed to attach to the insets for 15 hours. […] Afterwards insets were removed and cells that had migrated through the membrane to the lower chamber were trypsinized and counted in a Neubauer chamber (LO-Laboroptik, Bad Homburg, Germany). Each well was counted ten times. Each migration or invasion experiment was performed in duplicate. The average number of migrated or invaded cells was determined for at least three independent experiments.
(A) Chemical structure of niclosamide and its derivatives. In 2D illustrations the niclosamide structure was compared with the structure of niclosamide derivatives; marked in solid circles or boxes are added chemical groups, marked in grey and surrounded by dotted lines are removed chemical groups. In 3D illustrations grey clouds represent van der Waals surface, red and blue indicate negative and positive charges, respectively. (B) S100A4 expression under treated conditions. HCT116 cells were treated with 1 μM niclosamide or one of the niclosamide derivatives for 24 hours. S100A4 expression was analyzed by qRT-PCR and immunoblot. (C) Cell migration under treated conditions. HCT116 cells were treated with 1 μM niclosamide or one of its derivatives for 24 hours and cell migration was determined by Boyden chambder assay. Cells migrated to the lower chamber were counted and normalized to the number of migrated, solvent-treated HCT116 cells. Comparison of niclosamide or derivative-treated vs. solvent-treated cells was performed by two-sided one-way analysis of variance and Bonferroni post hoc multiple comparison test. Data is given as mean±SE at least four independent experiments each performed in duplicates.
For WNT pathway analysis the following cells were applied: HCT116 cells (heterozygous for gain-of-function-mutated CTNNB1; wt/mut), HAB-68mut cells (deletion mutant of HCT116, expressing only gain-of-function-mutated CTNNB1: −/mut) and HAB-92 wt cells (deletion mutant of HCT116, expressing only wild-type CTNNB1: wt/−). (A) CTNNB1 genotype dependent effect of niclosamide on LEF/TCF transcription factor reporter gene expression. Cells were treated with 1 μM niclosamide for 24 hours. Reporter gene expression was determined by luciferase activity measurement. For each condition and cell line TOPflash expression was normalized to FOPflash expression. (B) CTNNB1 genotype dependent effect of niclosamide on S100A4 expression. Cells were treated with 1 μM niclosamide for 24 hours. S100A4 expression was analyzed by qRT-PCR and immunoblot. (C) CTNNB1 genotype dependent effect of niclosamide on migration rates. Cells were treated with 1 μM niclosamide for 24 hours and cell migration was determined by Boyden chamber assay. Data represents mean±SE of at least three independent experiments. Differences were analyzed by Student's t test (n.s.; not statistically significant). (D) Nuclear localization of CTNNB1 under niclosamide treatment. Nuclear extracts of HCT116 cells treated with the indicated concentrations of niclosamide for 18 hours were analyzed by immunoblot. (E) Effect of niclosamide on CTNNB1/TCF complex. Nuclear extracts of HCT116 cells treated with the indicated concentrations of niclosamide for 18 hours were analyzed by EMSA for the TCF-binding site of the S100A4 promoter. Supershift was performed by addition of a monoclonal anti-CTNNB1 antibody. (F) Presence of CTNNB1 on the S100A4 promoter under niclosamide treatment. HCT116 cells were treated with 1 μM niclosamide for 18 hours and processed for ChIP assay. […]

[1] = test system: HCT116-vector cells and HCT116-S100A4 cells; experiment: Anchorage-dependent cell proliferation (MTT); format: cell-based, human; conditions: 1 μM daily
Description: For cell proliferation determination of HCT116, SW620, LS174T, SW480 and DLD-1 cells 2×10^3 cells were seeded in 96-well-plates (for each day one plate) and were given 24 hours to attach to the bottom of the well. Cells were from then on treated daily with 1 μM niclosamide or the respective amount of DMSO. For determination of viable cells 3-(4,5-dimethyl-2-thiazol)-2,5-diphenyl-2H-tetrazolium bromide (MTT; Sigma) was added to a final concentration of 0.5 mg per mL and incubated for 3 hours at 37° C. and 5% CO2 in a humidified incubator. […] Crystallized MTT was resolved by 10% SDS in 10 mM HCl and the absorption was measured at 560 nm. […] The average MTT metabolisation was determined of two independent experiments each performed in triplicate.
(A) Cell migration of HCT116-vector and HCT116-S100A4 cells exposed to niclosamide treatment. Cells were treated with 1 μM niclosamide for 24 hours and migration rates were measured with Boyden chamber assay. […] Cells were treated with 1 μM niclosamide for 24 hours and cell invasion was determined by Boyden chamber assay. (C) Directed migration of HCT116-vector and HCT116-S100A4 cells exposed to niclosamide treatment analyzed by wound healing assay. […] Cells were treated daily with 1 μM niclosamide and cell viability was determined with MTT assay. […] (F) Quantification of colonies formed. […]

[2] = humans, taken orally; cited from earlier work

O=C(Nc1ccc([N+](=O)[O-])cc1Cl)c1cc(Cl)ccc1O [niclosamide, 2′,5-dichloro-4′-nitrosalicylanilide]
cell migration rate, mean % (HCT116 cells; 24 hours post-treatment, control 100.0%): 18.7%
cell migration rate, mean % (HCT116 cells; 48 hours post-treatment, control 100.0%): 12.2%
cell migration rate, mean % (HCT116 cells; 72 hours post-treatment, control 108.8%): 10.4%
migration rate, mean difference control vs niclosamide (HCT116 cells; 1 μM, 24 h (relative scale)): 0.54
migration rate, mean (relative to HCT116 control) (HCT116 cells; 1 μM, 24 h, control 1.00): 0.45
migration, mean difference control vs niclosamide (HCT116 cells; 24 hours post-treatment): 81.3%
migration, mean difference control vs niclosamide (HCT116 cells; 48 hours post-treatment): 87.8%
migration, mean difference control vs niclosamide (HCT116 cells; 72 hours post-treatment): 98.4%
anchorage-dependent cell proliferation [1]: reduction of cell proliferation in both cell lines
side effects [2]: only slight side effects
